The structures appear in SMILES notation. Where two headings read alike, the source gives them in different places.

For one assay, the target named is T1, SHP2 (full length) (Homo sapiens, UniProt Q06124).
T1 construct: SHP2 (full length, diluted to 100 pM final concentration in reaction buffer, BPS bioscience, US); purchased BPS bioscience, US
T1 sequence (Q06124 1-593): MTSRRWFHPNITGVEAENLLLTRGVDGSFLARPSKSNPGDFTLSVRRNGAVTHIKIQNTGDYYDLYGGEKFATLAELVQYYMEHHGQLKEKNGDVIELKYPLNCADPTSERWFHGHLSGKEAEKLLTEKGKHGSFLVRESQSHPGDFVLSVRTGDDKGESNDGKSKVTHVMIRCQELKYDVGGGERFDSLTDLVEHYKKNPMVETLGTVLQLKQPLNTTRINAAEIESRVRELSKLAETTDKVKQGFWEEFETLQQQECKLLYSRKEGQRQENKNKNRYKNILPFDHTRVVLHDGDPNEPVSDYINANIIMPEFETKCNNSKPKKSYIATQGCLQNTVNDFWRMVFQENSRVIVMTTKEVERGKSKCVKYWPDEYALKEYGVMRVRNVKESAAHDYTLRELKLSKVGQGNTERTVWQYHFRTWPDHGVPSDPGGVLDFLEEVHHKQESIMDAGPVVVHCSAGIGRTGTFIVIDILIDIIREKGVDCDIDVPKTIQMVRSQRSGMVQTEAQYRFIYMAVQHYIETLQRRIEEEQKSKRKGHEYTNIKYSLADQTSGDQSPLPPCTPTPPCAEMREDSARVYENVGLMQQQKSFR
The assay is described as follows: Phosphatase assay (PTPase assay) with DiFMUP substrate. As to conditions: SHP2 activated with SHP2 activating peptide, DiFMUP 80 μM, 2 hours, fluorescence. The format is biochemical.

Assay [1] has as its system phospho-ERK in MIA PaCa2 or H358 cells. The experiment in a line: Phospho-ERK assay (AlphaLisa). The assay is classed as cell-based. For orientation: Bead proximity is the source of the signal in Alpha formats.
[2] abbreviates: 1.5 h, MIA PaCa2 or H358 cells, compound incubated 1.5 hours, read-out: IC50 (p-ERK).
The mark [3] stands for this setting: 1.5 h, read-out: IC50 (p-ERK, nM).
Setting [4] is: MIA PaCa2 or H358 cells, compound incubated 1.5 hours, read-out: IC50 (p-ERK).

In the case of `C[C@@H]1OCC2(CCN(c3cnc(Sc4cccc(S(N)(=O)=O)c4Cl)cn3)CC2)[C@@H]1N` [Example 9, 3-((5-((3S,4S)-4-amino-3-methyl-2-oxa-8-azaspiro[4.5]decan-8-yl)pyrazin-2-yl)thio)-2-chlorobenzenesulfonamide], the figures for the IC50 (at SHP2 (full length) (read-out: IC50 (PTPase aS say)); in assay [1] (setting [2])) were less than 3 nM and less than 45 nM, respectively.
The matching figures for `C[C@@H]1OCC2(CCN(c3cnc(Sc4cccc(S(=O)(=O)NCc5ccccc5)c4Cl)cn3)CC2)[C@@H]1N` [Example 10, 3-((5-((3S,4S)-4-amino-3-methyl-2-oxa-8-azaspiro[4.5]decan-8-yl)pyrazin-2-yl)thio)-N-benzyl-2-chlorobenzenesulfonamide]: 3 to 100 nM and less than 45 nM.
Regarding `C[C@@H]1OCC2(CCN(c3cnc(Sc4cccc(S(=O)(=O)F)c4Cl)cn3)CC2)[C@@H]1N` [Example 11, 3-((5-((3S,4S)-4-amino-3-methyl-2-oxa-8-azaspiro[4.5]decan-8-yl)pyrazin-2-yl)thio)-2-chlorobenzenesulfonyl fluoride], the IC50 at SHP2 (full length) (IC50 (PTPase aS say, nM)) is less than 3 nM; in assay [1] (setting [3]), less than 45 nM.
On to `C[C@@H]1OCC2(CCN(c3cnc(Sc4cccc(S(N)(=O)=O)c4Cl)c(N)n3)CC2)[C@@H]1N` [Example 12, 3-((3-amino-5-((3S,4S)-4-amino-3-methyl-2-oxa-8-azaspiro[4.5]decan-8-yl)pyrazin-2-yl)thio)-2-chlorobenzenesulfonamide], for which the values for the IC50 (at SHP2 (full length) (read-out: IC50 (PTPase aS say)); in assay [1] (setting [4])) were 3 to 100 nM and 45 to 1500 nM, respectively.
The matching figures for `CC1(CN)CCN(c2cnc(Sc3ccc4ncn(Cc5ccccc5)c(=O)c4c3Cl)cn2)CC1` [Example 13, 6-((5-(4-(aminomethyl)-4-methylpiperidin-1-yl)pyrazin-2-yl)thio)-3-benzyl-5-chloroquinazolin-4(3H)-one]: 3 to 100 nM and 45 to 1500 nM.
With `CC1(N)CCN(c2cnc(Sc3ccc4ncn(Cc5cccc([N+](=O)[O-])c5)c(=O)c4c3Cl)cn2)CC1` [Example 14, 6-((5-(4-amino-4-methylpiperidin-1-yl)pyrazin-2-yl)thio)-5-chloro-3-(3-nitrobenzyl)quinazolin-4(3H)-one], the values for the IC50 (at SHP2 (full length) (read-out: IC50 (PTPase aS say)); in assay [1] (setting [2])) were 3 to 100 nM and 45 to 1500 nM, respectively.
The corresponding values for `Cn1cnc2ccc(Sc3cnc(N4CCC(C)(CN)CC4)cn3)c(Cl)c2c1=O` [Example 15, 6-((5-(4-(aminomethyl)-4-methylpiperidin-1-yl)pyrazin-2-yl)thio)-5-chloro-3-methylquinazolin-4(3H)-one] are 3 to 100 nM and 45 to 1500 nM.
With `CC1(CN)CCN(c2cnc(Sc3ccc4ncn(Cc5cccc(S(=O)(=O)F)c5)c(=O)c4c3Cl)cn2)CC1` [Example 16, 3-((6-((5-(4-(aminomethyl)-4-methylpiperidin-1-yl)pyrazin-2-yl)thio)-5-chloro-4-oxoquinazolin-3(4H)-yl)methyl)benzenesulfonyl fluoride], the IC50 is less than 3 nM against SHP2 (full length) (IC50 (PTPase aS say, nM)) and 45 to 1500 nM in assay [1] (setting [3]).
For the compound `CC1(CN)CCN(c2cnc(Sc3ccc4ncn(Cc5ccc(S(=O)(=O)F)cc5)c(=O)c4c3Cl)cn2)CC1` [Example 17, 4-((6-((5-(4-(aminomethyl)-4-methylpiperidin-1-yl)pyrazin-2-yl)thio)-5-chloro-4-oxoquinazolin-3(4H)-yl)methyl)benzenesulfonyl fluoride], the IC50 on SHP2 (full length) (IC50 (PTPase aS say, nM)) is 3 to 100 nM; in assay [1] (setting [3]), 45 to 1500 nM.
For the compound `C[C@@H]1OCC2(CCN(c3cnc(Sc4ccc5ncn(Cc6ccccc6)c(=O)c5c4Cl)cn3)CC2)[C@@H]1N` [Example 18, 6-((5-((3S,4S)-4-amino-3-methyl-2-oxa-8-azaspiro[4.5]decan-8-yl)pyrazin-2-yl)thio)-3-benzyl-5-chloroquinazolin-4(3H)-one], the figures for the IC50 (on SHP2 (full length) (read-out: IC50 (PTPase aS say)); in assay [1] (setting [4])) were less than 3 nM and less than 45 nM, respectively.
Take `C[C@@H]1OCC2(CCN(c3cnc(Sc4ccc5ncn(Cc6cccc(S(=O)(=O)F)c6)c(=O)c5c4Cl)cn3)CC2)[C@@H]1N` [Example 19, 3-((6-((5-((3S,4S)-4-amino-3-methyl-2-oxa-8-azospiro[4.5]decan-8-yl)pyrazin-2-yl)thio)-5-chloro-4-oxoquinazolin-3(4H)-yl)methyl)benzenesulfonyl fluoride]: the IC50 against SHP2 (full length) (IC50 (PTPase aS say, nM)) is less than 3 nM; in assay [1] (setting [3]), 45 to 1500 nM.
For `C[C@@H]1OCC2(CCN(c3cnc(Sc4ccc5ncn(Cc6cccnc6)c(=O)c5c4Cl)cn3)CC2)[C@@H]1N` [Example 20, 6-((5-((3S,4S)-4-amino-3-methyl-2-oxa-8-azospiro[4.5]decan-8-yl)pyrazin-2-yl)thio)-5-chloro-3-(pyridin-3-ylmethyl)quinazolin-4H-one], the IC50 is less than 3 nM at SHP2 (full length) (read-out: IC50 (PTPase aS say)) and less than 45 nM in assay [1] (setting [2]).
As for `Cc1nc2ccc(Sc3cnc(N4CCC(C)(CN)CC4)cn3)c(Cl)c2c(=O)[nH]1` [Example 22, 6-((5-(4-(aminomethyl)-4-methylpiperidin-1-yl)pyrazin-2-yl)thio)-5-chloro-2-methylquinazolin-4(3H)-one], the results for the half-inhibitory concentration (IC50) (at SHP2 (full length) (read-out: IC50 (PTPase aS say)); in assay [1] (setting [2])) were 3 to 100 nM and 45 to 1500 nM, respectively.
The matching figures for `Cc1nc2ccc(Sc3cnc(N4CCC(C)(CN)CC4)cn3)c(Cl)c2c(=O)n1Cc1ccccc1` [Example 23, 6-((5-(4-(aminomethyl)-4-methylpiperidin-1-yl)pyrazin-2-yl)thio)-3-benzyl-5-chloro-2-methylquinazolin-4(3H)-one]: 3 to 100 nM and 45 to 1500 nM.
The corresponding values for `Cc1nc2ccc(Sc3cnc(N4CCC(C)(N)CC4)cn3)c(Cl)c2s1` [Example 24, 1-(5-((7-chloro-2-methylbenzo[d]thiazol-6-yl)thio)pyrazin-2-yl)-4-methylpiperidin-4-amine] are 3 to 100 nM and greater than 1500 nM.
In the case of `Cn1cc2c(Cl)c(Sc3cnc(N4CCC(C)(N)CC4)cn3)ccc2n1` [Example 25, 1-(5-((4-chloro-2-methyl-2H-indazol-5-yl)thio)pyrazin-2-yl)-4-methylpiperidin-4-amine], the IC50 on SHP2 (full length) (read-out: IC50 (PTPase aS say)) is 3 to 100 nM; in assay [1] (setting [2]), 45 to 1500 nM.
The matching figures for `C[C@@H]1OCC2(CCN(c3cnc(Sc4ccc5nn(C)cc5c4Cl)cn3)CC2)[C@@H]1N` [Example 26, (3S,4S)-8-(5-((4-chloro-2-methyl-2H-indazol-5-yl)thio)pyrazin-2-yl)-3-methyl-2-oxa-8-azaspiro[4.5]decan-4-amine]: less than 3 nM and less than 45 nM.
The corresponding values for `Cn1c(N2CCC(C)(N)CC2)nc(N)c(Sc2cccc(C(=O)O)c2Cl)c1=O` [Example 27, 3-((4-amino-2-(4-amino-4-methylpiperidin-1-yl)-1-methyl-6-oxo-1,6-dihydropyrimidin-5-yl)thio)-2-chlorobenzoic acid] are greater than 100 nM and greater than 1500 nM.
`CC1(N)CCN(c2cnc(Sc3ccc4ncn(-c5ccccc5)c(=O)c4c3Cl)cn2)CC1` [Example 28, 6-((5-(4-amino-4-methylpiperidin-1-yl)pyrazin-2-yl)thio)-5-chloro-3-phenylquinazolin-4(3H)-one]: the IC50 on SHP2 (full length) (read-out: IC50 (PTPase aS say)) fell in the range of 3 to 100 nM; in assay [1] (setting [2]), 45 to 1500 nM.
The corresponding values for `Cn1c(N2CCC(C)(N)CC2)nc(N)c(Sc2ccc3nc[nH]c(=O)c3c2Cl)c1=O` [Example 29, 6-((4-amino-2-(4-amino-4-methylpiperidin-1-yl)-1-methyl-6-oxo-1,6-dihydropyrimidin-5-yl)thio)-5-chloroquinazolin-4(3H)-one] are greater than 100 nM and greater than 1500 nM.

One may read the IC50 as the concentration needed to halve the response being measured.

For the origin of these results see patent publication US12029739B2, “SHP2 inhibitor and use thereof” (KANAPH THERAPEUTICS INC., priority 2021, dated 2024).
